These results are taken from patent US9745328B2, “Flap modulators” (JANSSEN PHARMACEUTICA NV, priority 2013, dated 2017).

As usually defined, the Ki is the dissociation constant of the complex between target and ligand, obtained from inhibition or displacement. Broadly, the IC50 is the concentration needed to halve the response being measured.

Where a name gives a salt, the structure may show the parent alone. Where only a bound is given, the exact number is not on record here.

Chain of human FLAP (P20292 whole entry): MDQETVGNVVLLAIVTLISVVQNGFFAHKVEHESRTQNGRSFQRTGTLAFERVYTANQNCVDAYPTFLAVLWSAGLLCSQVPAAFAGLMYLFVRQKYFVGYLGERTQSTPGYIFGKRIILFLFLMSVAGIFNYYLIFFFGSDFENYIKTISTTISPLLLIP

In the first test the target is human FLAP (Homo sapiens (Human), UniProt P20292). Description: FLAP binding assay (HTRF format). As to conditions: Table 6 (additional runs), human FLAP wild type. An outline of the steps:
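Samples were run in duplicate on each of two assay plates, the results were averaged, and the signal was expressed as an HTRF ratio.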
Background: In TR-FRET formats the signal depends on donor and acceptor labels being close together.
As for `Nc1cnc(-c2ccc(-c3ccccc3NS(=O)(=O)C(F)(F)F)cc2F)cn1` [Example 41, N-[4′-(5-Aminopyrazin-2-yl)-3′-fluorobiphenyl-2-yl]-1,1,1-trifluoromethanesulfonamide], the Ki amounted to 10.6 nM.
Consider `C[C@H](CO)NS(=O)(=O)c1ccccc1-c1ccc(-c2cnc3c(c2)OCCN3)c(F)c1` [Example 390, 4′-(3,4-Dihydro-2H-pyrido[3,2-b][1,4]oxazin-7-yl)-3′-fluoro-N-[(1R)-2-hydroxy-1-methylethyl]biphenyl-2-sulfonamide], for which the inhibitory constant (Ki) was determined as 0.4 nM.
As for `Nc1cnc(-c2ccc(-c3ccccc3S(=O)(=O)N[C@H]3CCCC[C@@H]3CO)cc2F)cn1` (racemic) [Example 121, racemic (trans)-4′-(5-Aminopyrazin-2-yl)-3′-fluoro-N-[2-(hydroxymethyl)cyclohexyl]biphenyl-2-sulfonamide], the affinity corresponds to a Ki of 0.5 nM.
On the same count and under the same terms, the result for `Nc1cnc(-c2ccc(-c3ccccc3S(=O)(=O)N3CC[C@@H](O)C3)cc2F)cn1` [Example 185, (3R)-1-{[4′-(5-Aminopyrazin-2-yl)-3′-fluoroblphenyl-2-yl]sulfonyl}pyrrolidin-3-ol] reads 9.5 nM; that for `CC(C)(CCO)NS(=O)(=O)c1ccccc1-c1ccc(-c2cnc(N)cn2)c(F)c1` [Example 102, 4′-(5-Aminopyrazin-2-yl)-3′-fluoro-N-(3-hydroxy-1,1-dimethylpropyl)biphenyl-2-sulfonamide], 0.4 nM; that for `Nc1cnc(-c2ccc(-c3ccccc3S(=O)(=O)N[C@@H](CO)c3ccccc3)cc2F)cn1` [Example 82, 4′-(5-Aminopyrazin-2-yl)-3′-fluoro-N-[(1R)-2-hydroxy-1-phenylethyl]biphenyl-2-sulfonamide], 0.7 nM.
The compound `Nc1cnc(-c2ccc(-c3ccccc3S(=O)(=O)NCC3(O)CCCCC3)cc2F)cn1` [Example 99, 4′-(5-Aminopyrazin-2-yl)-3′-fluoro-N-[(1-hydroxycyclohexyl)methyl]biphenyl-2-sulfonamide] yielded an inhibitory constant (Ki) of 1.6 nM.
Consider `CCC(C)(C)NS(=O)(=O)c1ccccc1-c1ccc(-c2ccc(N)nc2)c(F)c1` [Example 349, 4′-(6-aminopyridin-3-yl)-3′-fluoro-N-(tert-pentyl)-[1,1′-biphenyl]-2-sulfonamide], for which affinity was put at a Ki of 0.9 nM.
Compound `Nc1cnc(-c2ccc(-c3ccccc3Sc3ncncc3N)cc2F)cn1` [Example 217, 4-{[4′-(5-Aminopyrazin-2-yl)-3′-fluorobiphenyl-2-yl]sulfanyl}pyrimidin-5-amine hydrochloride] gave a Ki of 1.2 nM.
`Nc1cnc(-c2ccc(-c3ccc(C(F)(F)F)cc3S(=O)(=O)NCCO)cc2F)cn1` [Example 210, 4′-(5-aminopyrazin-2-yl)-3′-fluoro-N-(2-hydroxyethyl)-4-(trifluoromethyl)biphenyl-2-sulfonamide] gave an inhibition constant Ki of 0.4 nM.
`CS(=O)(=O)NS(=O)(=O)c1ccccc1-c1ccc(-c2cnc(N)cn2)c(F)c1` [Example 96, 4′-(5-Aminopyrazin-2-yl)-3′-fluoro-N-(methylsulfonyl)biphenyl-2-sulfonamide] came in with a Ki of 354 nM.
Still for that read-out and setting: the result for `Nc1cnc(-c2ccc(-c3ccccc3S(=O)(=O)N(C3CCOCC3)C3CC3)cc2F)cn1` [Example 140, 4′-(5-Aminopyrazin-2-yl)-N-cyclopropyl-3′-fluoro-N-(tetrahydro-2H-pyran-4-yl)biphenyl-2-sulfonamide] reads 1.4 nM; that for `Nc1ncc(-c2ccc(-c3ccccc3Sc3ccnc(N)n3)cc2F)cn1` [Example 335, 4-{[4′-(2-Aminopyrimidin-5-yl)-3′-fluorobiphenyl-2-yl]sulfanyl}pyrimidin-2-amine formate salt], 1.9 nM.
`Nc1cnc(-c2ccc(-c3ccccc3S(=O)(=O)C3CC3)cc2F)cn1` [Example 197, 5-[2′-(Cyclopropylsulfonyl)-3-fluorobiphenyl-4-yl]pyrazin-2-amine] registered a Ki of 7.1 nM.
`CN1CCN([C@H]2CN(S(=O)(=O)c3ccccc3-c3ccc(-c4cnc(N)cn4)c(F)c3)C[C@@H]2O)CC1` (stereo in doubt) [Example 188, (3S,4S)-1-{[4′-(5-Aminopyrazin-2-yl)-3′-fluorobiphenyl-2-yl]sulfonyl}-4-(4-methylpiperazin-1-yl)pyrrolidin-3-ol] came in with a Ki of 201 nM.
With `CC(C)C[C@@H](CO)NS(=O)(=O)c1ccccc1-c1ccc(-c2cnc(N)cn2)c(F)c1` [Example 79, 4′-(5-Aminopyrazin-2-yl)-3′-fluoro-N-[(1S)-1-(hydroxymethyl)-3-methylbutyl]biphenyl-2-sulfonamide], the inhibition constant Ki is 5.3 nM.
Same read-out and setting: next, `O=S(=O)(c1ccccc1-c1ccc(-c2cnc3c(c2)OCCN3)c(F)c1)N1CCCCC1` [Example 386, 7-[3-Fluoro-2′-(piperidin-1-ylsulfonyl)biphenyl-4-yl]-3,4-dihydro-2H-pyrido[3,2-b][1,4]oxazine]: 1.8 nM.
Same read-out and setting: the result for `C[C@H](NS(=O)(=O)c1ccccc1-c1ccc(-c2cnc(N)nc2)c(F)c1)C(=O)OC(C)(C)C` [Example 307, tert-Butyl N-{[4′-(2-aminopyrimidin-5-yl)-3′-fluorobiphenyl-2-yl]sulfonyl}-L-alaninate] reads 4.5 nM.
Still for that read-out and setting: next, `CCNS(=O)(=O)c1ccccc1-c1ccc(-c2cnc(N)cn2)c(F)c1` [Example 16, 4′-(5-Aminopyrazin-2-yl)-N-ethyl-3′-fluorobiphenyl-2-sulfonamide]: 5 nM.

The test is the same for the next values; noted with them: human FLAP wild type, Table 6 (additional runs).
Compound `COc1cc(C(F)(F)F)ccc1-c1ccc(-c2cnc(N)cn2)c(F)c1` [Example 553, 5-[3-fluoro-2′-methoxy-4′-(trifluoromethyl)biphenyl-4-yl]pyrazin-2-amine] showed a Ki of 19.3 nM.
Still for that read-out and setting: the result for `Nc1cc(-c2ccc(-c3ccccc3S(=O)(=O)NC3(CO)CCCC3)cc2F)cc2cc[nH]c12` [Example 456, 4′-(7-Amino-1H-indol-5-yl)-3′-fluoro-N-[1-(hydroxymethyl)cyclopentyl]biphenyl-2-sulfonamide] reads 2.6 nM; that for `COc1nc(-c2ccc(-c3ccccc3S(=O)(=O)NC(C)(C)C)cc2F)cnc1N` [Example 433, 4′-(5-Amino-6-methoxypyrazin-2-yl)-N-tert-butyl-3′-fluorobiphenyl-2-sulfonamide], 1.1 nM.
Take `Nc1cnc(-c2ccc(-c3ccccc3NS(=O)(=O)c3ccccc3)cc2F)cn1` [Example 479, N-[4′-(5-Aminopyrazin-2-yl)-3′-fluorobiphenyl-2-yl]benzenesulfonamide]: the inhibition constant Ki came to 7.7 nM.
In the case of `COc1cnc(Oc2ccccc2-c2ccc(-c3cnc(N)nc3)c(F)c2)nc1` [Example 550, 5-{3-Fluoro-2′-[(5-methoxypyrimidin-2-yl)oxy]biphenyl-4-yl}pyrimidin-2-amine], the affinity, expressed as Ki, was 1.7 nM.
In the case of `C[C@@H]1COCCN1C(=O)c1ccccc1-c1ccc(-c2cnc(N)cn2)c(F)c1` [Example 775, 5-(3-Fluoro-2′-{[(3R)-3-methylmorpholin-4-yl]carbonyl}biphenyyl-4-yl)pyrazin-2-amine], the Ki amounted to 30.4 nM.
Take `CC(CO)NS(=O)(=O)c1ccccc1-c1ccc(-c2cnc(N)c(C#N)n2)c(F)c1` (stereo in doubt) [Example 410, 4′-(5-amino-6-cyanopyrazin-2-yl)-3′-fluoro-N-[(1R)-2-hydroxy-1-methylethypiphenyl-2-sulfonamide]: the Ki stood at 3.7 nM.
For `CC(C)(C)NS(=O)(=O)c1ccccc1-c1cnc(-c2cnc(N)nc2)c(F)c1` [Example 675, 2-[6-(2-Aminopyrimidin-5-yl)-5-fluoropyridin-3-yl]-N-tert-butylbenzenesulfonamide], affinity was put at a Ki of 1 nM.
Same read-out and setting: next, `Nc1cnc(-c2ccc(-c3cccnc3OC3CCNCC3)cc2F)cn1` [Example 645]: greater than 10000 nM.

Staying with this test, now noted: human FLAP wild type, a calculated value of 0.000 indicates Ki less than 1 nM.
In the case of `C[C@H](CO)NS(=O)(=O)c1ccccc1-c1ccc(-c2cnc3c(c2)OCCN3)c(F)c1` [Example 390, 4′-(3,4-Dihydro-2H-pyrido[3,2-b][1,4]oxazin-7-yl)-3′-fluoro-N-[(1R)-2-hydroxy-1-methylethyl]biphenyl-2-sulfonamide], the Ki is less than 1 nM.
With `Nc1cnc(-c2ccc(-c3ccccc3S(=O)(=O)N[C@H]3CCCC[C@@H]3CO)cc2F)cn1` (racemic) [Example 121, racemic (trans)-4′-(5-Aminopyrazin-2-yl)-3′-fluoro-N-[2-(hydroxymethyl)cyclohexyl]biphenyl-2-sulfonamide], the Ki was less than 1 nM.
The same measure, in the same setting: next, `CC(C)(CCO)NS(=O)(=O)c1ccccc1-c1ccc(-c2cnc(N)cn2)c(F)c1` [Example 102, 4′-(5-Aminopyrazin-2-yl)-3′-fluoro-N-(3-hydroxy-1,1-dimethylpropyl)biphenyl-2-sulfonamide]: less than 1 nM; `Nc1cnc(-c2ccc(-c3ccc(C(F)(F)F)cc3S(=O)(=O)NCCO)cc2F)cn1` [Example 210, 4′-(5-aminopyrazin-2-yl)-3′-fluoro-N-(2-hydroxyethyl)-4-(trifluoromethyl)biphenyl-2-sulfonamide]: less than 1 nM.

The next test concerns leukotriene pathway in human whole blood (LTB4). Description: Human whole blood assay (LTB4 levels after calcium ionophore A23187 stimulation). It is filed as cell-based. To be noted: Homo sapiens, human whole blood diluted 1:1, A23187 stimulation; Table 6 (additional runs); read-out: Human Whole Blood LTB4 IC50 1:1. The protocol: The ability of the compounds of the present invention to treat a FLAP-mediated disease and/or disorder, or associated symptoms or complications thereof, was determined using the following procedures. Binding assay data represent the average value obtained from two different assay plates, with samples run in duplicate on each plate. Human whole blood assay data represent a single replicate on an assay plate using whole blood from at least one healthy donor.
An in vitro cellular assay was performed using human whole blood collected in heparin-containing tubes, which was used to test the ability of compounds to modulate the leukotriene pathway in human whole blood. The blood was diluted 1:1 in RPMI medium, pre-incubated for 15 min at 37° Celsius with test compounds at various concentrations, and then stimulated with calcium ionophore, A23187 (7 μg/mL), for 30 min at 37° Celsius. The samples were then centrifuged and plasma was removed. The plasma was diluted in assay buffer and LTB4 levels were measured using a commercial kit (Enzo Life Sciences). The concentration of each compound that was required for half-maximal inhibition (modulation) of recombinant enzyme activity (IC50) was calculated by a 4-parameter equation using the program GraphPad Prism (GraphPad software).
For the compound `CC(C)S(=O)(=O)c1ncccc1-c1ccc(-c2cnc(N)cn2)c(F)c1` [Example 395, 5-(2-Fluoro-4-{2-[(1-methylethyl)sulfonyl]pyridin-3-yl}phenyl)pyrazin-2-amine], the IC50 is 26.9 nM.
As for `Nc1cnc(-c2ccc(-c3ccccc3-c3ccc(N)nn3)cc2F)cn1` [Example 863], the IC50 came to 140 nM.
The same measure, in the same setting: next, `C[C@H](NC(=O)c1cc(C(F)(F)F)ccc1-c1ccc(-c2cnc(N)nc2)c(F)c1)C(F)(F)F` [Example 788, 2-[4-(2-Aminopyrimidin-5-yl)-3-fluoro-phenyl]-5-(trifuoromethyl)-N-[(1S)-2,2,2-trifluoro-1-methyl-ethyl]enzamide]: 1800 nM.
The same measure, in the same setting: next, `Nc1cnc(-c2ccc(-c3ccccc3S(=O)(=O)NCC3(O)CNC3)cc2F)cn1` [Example 664]: greater than 1000 nM.
Turning to `CC(C)(C)C(=O)Nc1ncccc1-c1ccc(-c2cnc3[nH]ccc3c2)c(F)c1` [Example 802, N-{3-[3-Fluoro-4-(1H-pyrrolo[2,3-b]pyridin-5-yl)phenyl]pyridin-2-yl}-2,2-dimethylpropanamide], the IC50 was greater than 1000 nM.

Staying with this test, now noted: Homo sapiens, human whole blood diluted 1:1 in RPMI, A23187 stimulation, LTB4; read-out: Human Whole Blood LTB4 IC50 1:1.
With `Nc1cnc(-c2ccc(-c3ccccc3S(=O)(=O)NCC3(O)CNC3)cc2F)cn1` [Example 664], the IC50 is greater than 1000 nM.
